Patent US20260125370A1, “SULFOXIMINE COMPOUNDS AS HISTONE DEACETYLASE 6 INHIBITOR, AND PHARMACEUTICAL COMPOSITION COMPRISING THE SAME” (CHONG KUN DANG PHARMACEUTICAL CORP., priority 2022, published 2026)

Experiments:
[1] = molecular target: T1, human recombinant HDAC1 (Homo sapiens, UniProt Q13547); assay: HDAC1 enzyme activity inhibition (HDAC1 Fluorimetric Drug Discovery Assay Kit, in vitro); format: biochemical; conditions: samples at 100, 1000 and 10000 nM
T1 construct: purchased Enzolifesciences BML-SE456
Description: (§1) A HDAC enzyme inhibitory capacity of a test material was measured by using HDAC1 Fluorimetric Drug Discovery Assay Kit (Enzolifesciences: BML-AK511) and HDAC6 human recombinant (Calbiochem: 382180). For a HDAC1 assay, samples were treated at a concentration of 100, 1000 and 10000 nM. For a HDAC6 assay, samples were treated at a concentration of 0.1, 1, 10, 100 and 1000 nM.
(§2) For the test on the HDAC1 enzyme activity, human recombinant HDAC1 (BML-SE456) was used as a zymogen and Fluor de Lys®-SIRT1 (BNL-KI177) was used as a substrate. A 5-fold dilution of the compound was divided into a 96-well plate, after which 0.3 μg of the enzyme and […] of the substrate were inserted into each well and subjected to reaction at 37° C. for 60 minutes, such that Fluor de Lys® Developer II (BML-K1176) was inserted thereinto and subjected to reaction for 30 minutes and finished. After that, a fluorescence value (Ex 360, Em 460) was measured with a multi-plate reader (FlexStation 3, Molecular Device). An experiment on HDAC6 enzyme was conducted in accordance with the same protocol as in the HDAC1 enzyme activity test method by using human recombinant HDAC6 (382180) of Calbiochem Inc. For final result values, each IC50 value was calculated with GraphPad Prism 4.0 program.

[2] = molecular target: T2, human recombinant HDAC6 (Homo sapiens, UniProt Q9UBN7); assay: HDAC6 enzyme activity inhibition (fluorimetric, in vitro); format: biochemical; conditions: samples at 0.1, 1, 10, 100 and 1000 nM
T2 construct: purchased Calbiochem 382180
T2 sequence (Q9UBN7 1-1215): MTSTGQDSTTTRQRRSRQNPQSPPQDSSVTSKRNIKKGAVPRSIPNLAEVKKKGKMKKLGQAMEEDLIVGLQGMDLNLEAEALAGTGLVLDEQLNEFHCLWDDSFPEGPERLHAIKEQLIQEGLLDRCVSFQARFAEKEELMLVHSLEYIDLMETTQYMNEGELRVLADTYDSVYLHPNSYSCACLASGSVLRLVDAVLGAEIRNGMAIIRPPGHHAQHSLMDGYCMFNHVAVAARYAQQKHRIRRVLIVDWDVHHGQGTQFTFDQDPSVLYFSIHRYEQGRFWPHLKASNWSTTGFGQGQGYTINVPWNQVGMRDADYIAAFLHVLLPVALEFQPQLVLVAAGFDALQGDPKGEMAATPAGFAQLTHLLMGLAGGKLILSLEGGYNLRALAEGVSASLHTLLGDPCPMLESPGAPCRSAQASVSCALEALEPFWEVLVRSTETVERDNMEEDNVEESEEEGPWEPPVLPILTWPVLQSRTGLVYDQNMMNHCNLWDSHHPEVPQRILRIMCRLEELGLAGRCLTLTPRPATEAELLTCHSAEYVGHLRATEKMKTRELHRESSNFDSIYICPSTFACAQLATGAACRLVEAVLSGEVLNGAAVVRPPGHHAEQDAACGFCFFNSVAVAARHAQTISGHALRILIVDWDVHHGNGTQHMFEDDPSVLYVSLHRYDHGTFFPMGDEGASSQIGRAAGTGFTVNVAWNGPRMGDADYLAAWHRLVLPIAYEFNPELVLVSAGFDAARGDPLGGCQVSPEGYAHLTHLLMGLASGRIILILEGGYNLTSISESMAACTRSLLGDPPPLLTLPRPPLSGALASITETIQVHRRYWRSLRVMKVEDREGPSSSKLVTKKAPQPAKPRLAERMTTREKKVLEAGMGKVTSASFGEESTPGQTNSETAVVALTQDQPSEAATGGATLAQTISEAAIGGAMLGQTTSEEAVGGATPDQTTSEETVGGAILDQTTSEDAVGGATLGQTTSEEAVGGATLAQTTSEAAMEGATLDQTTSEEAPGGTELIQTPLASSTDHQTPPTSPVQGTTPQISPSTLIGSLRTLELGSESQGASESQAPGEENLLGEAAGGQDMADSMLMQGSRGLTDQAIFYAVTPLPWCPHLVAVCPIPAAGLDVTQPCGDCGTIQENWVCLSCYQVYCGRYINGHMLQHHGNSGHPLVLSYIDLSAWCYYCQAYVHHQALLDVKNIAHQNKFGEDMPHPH
Description: as §1, §2

T1 sequence (Q13547 whole entry): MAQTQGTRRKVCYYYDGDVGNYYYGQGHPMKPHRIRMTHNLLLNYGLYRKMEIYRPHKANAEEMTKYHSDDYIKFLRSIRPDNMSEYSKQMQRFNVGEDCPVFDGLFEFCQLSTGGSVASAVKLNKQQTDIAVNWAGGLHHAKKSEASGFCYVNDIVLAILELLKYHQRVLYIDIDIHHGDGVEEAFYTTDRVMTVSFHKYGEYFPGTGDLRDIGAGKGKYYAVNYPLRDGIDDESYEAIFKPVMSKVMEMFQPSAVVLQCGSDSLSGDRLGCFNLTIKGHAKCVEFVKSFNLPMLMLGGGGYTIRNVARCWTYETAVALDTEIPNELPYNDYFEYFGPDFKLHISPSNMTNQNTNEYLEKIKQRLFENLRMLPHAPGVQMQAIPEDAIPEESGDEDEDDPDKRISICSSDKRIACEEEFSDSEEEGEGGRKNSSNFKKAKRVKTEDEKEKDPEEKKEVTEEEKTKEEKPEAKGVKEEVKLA

Structure (SMILES) | IC50 [1] [nM] | IC50 [2] [nM]
Cn1ccc2cc(N(Cc3ccc(-c4nnc(C(F)F)o4)cc3F)C(=O)N3CCS(=N)(=O)CC3)ccc21 [Compound 10, N-(4-(5-(difluoromethyl)-1,3,4-oxadiazol-2-yl)-2-fluorobenzyl)-1-imino-N-(1-methyl-1H-indol-5-yl)thiomorpholin-4-carboxamide 1-oxide] | > 10000 | 108
CS(=N)(=O)c1ccc(N(Cc2ccc(-c3nnc(C(F)F)o3)cc2F)C(=O)N2CCS(=N)(=O)CC2)cc1 (stereo not drawn) [Compound 11, N-(4-(5-(difluoromethyl)-1,3,4-oxadiazol-2-yl)-2-fluorobenzyl)-1-imino-N-(4-(S-methylsulfonimidoyl)phenyl)thiomorpholin-4-carboxamide 1-oxide] | > 10000 | 1420
N=S1(=O)CCN(C(=O)N(Cc2ccc(-c3nnc(C(F)F)o3)cc2F)c2cccs2)CC1 [Compound 12, N-(4-(5-(difluoromethyl)-1,3,4-oxadiazol-2-yl)-2-fluorobenzyl)-1-imino-N-(thiophen-2-yl)thiomorpholin-4-carboxamide 1-oxide] | > 10000 | 62.6
N=S1(=O)CCN(C(=O)N(Cc2ccc(-c3nnc(C(F)F)o3)cc2F)c2cccc(F)c2)CC1 [Compound 13, N-(4-(5-(difluoromethyl)-1,3,4-oxadiazol-2-yl)-2-fluorobenzyl)-N-(3-fluorophenyl)-1-iminothiomorpholin-4-carboxamide 1-oxide] | > 10000 | 44
Cn1ccc2cc(N(Cc3ccc(-c4nnc(C(F)F)o4)cn3)C(=O)N3CCS(=N)(=O)CC3)ccc21 [Compound 14, N-((5-(5-(difluoromethyl)-1,3,4-oxadiazol-2-yl)pyridin-2-yl)methyl)-1-imino-N-(1-methyl-1H-indol-5-yl)thiomorpholin-4-carboxamide 1-oxide] | > 10000 | 94.4
CS(=N)(=O)c1ccc(N(Cc2ccc(-c3nnc(C(F)F)o3)cn2)C(=O)N2CCS(=N)(=O)CC2)cc1 (stereo not drawn) [Compound 15, N-((5-(5-(difluoromethyl)-1,3,4-oxadiazol-2-yl)pyridin-2-yl)methyl)-1-imino-N-(4-(S-methylsulfonimidoyl)phenyl)thiomorpholin-4-carboxamide 1-oxide] | > 10000 | 1350
N=S1(=O)CCN(C(=O)N(Cc2ccc(-c3nnc(C(F)F)o3)cn2)c2cccs2)CC1 [Compound 16, N-((5-(5-(difluoromethyl)-1,3,4-oxadiazol-2-yl)pyridin-2-yl)methyl)-1-imino-N-(thiophen-2-yl)thiomorpholin-4-carboxamide 1-oxide] | > 10000 | 42.6
N=S1(=O)CCN(C(=O)N(Cc2ccc(-c3nnc(C(F)F)o3)cn2)c2cccc(F)c2)CC1 [Compound 17] | > 10000 | 27.2
N=S1(=O)CCN(S(=O)(=O)N(Cc2ccc(-c3nnc(C(F)F)o3)cc2F)c2ccccc2)CC1 [Compound 18, N-(4-(5-(difluoromethyl)-1,3,4-oxadiazol-2-yl)-2-fluorobenzyl)-1-imino-N-phenylthiomorpholin-4-sulfonamide 1-oxide] | > 10000 | 32.6
N=S1(=O)CCN(S(=O)(=O)N(Cc2ccc(-c3nnc(C(F)F)o3)cn2)c2ccccc2)CC1 [Compound 19, N-((5-(5-(difluoromethyl)-1,3,4-oxadiazol-2-yl)pyridin-2-yl)methyl)-1-imino-N-phenylthiomorpholin-4-sulfonamide 1-oxide] | > 10000 | 19.7
N=S1(=O)CC(N2C[C@@H]3C[C@H]2CN3c2c(N(Cc3ncc(-c4nnc(C(F)F)o4)cc3F)c3ccccc3)c(=O)c2=O)C1 (stereo partly drawn) [Compound 88, 3-[N-[[5-[5-(difluoromethyl)-1.3.4-oxadiazol-2-yl]-3-fluoro-2-pyridyl]methyl]anilino]-4-[(1S,4S)-5-(1-imino-1-oxo-thiethan-3-yl)-2,5-diazabicyclo[2.2.1]heptan-2-yl]cyclobut-3-en-1,2-dione] | > 10000 | –

Other lines, results leading:

IC50 [1] [nM] | IC50 [2] [nM] | Structure (SMILES)
> 10000 | 49.4 | N=S1(=O)CCN(C(=O)N(Cc2ccc(-c3nnc(C(F)F)o3)cc2F)c2ccccc2)CC1 [Compound 1, N-(4-(5-(difluoromethyl)-1,3,4-oxadiazol-2-yl)-2-fluorobenzyl)-1-imino-N-phenylthiomorpholin-4-carboxamide 1-oxide]
> 10000 | 168 | O=C(N1CCS(=O)(=NC(=O)C(F)(F)F)CC1)N(Cc1ccc(-c2nnc(C(F)F)o2)cn1)c1ccccc1 [Compound 2, N-((5-(5-(difluoromethyl)-1,3,4-oxadiazol-2-yl)pyridin-2-yl)methyl)-N-phenyl-1-((2,2,2-trifluoroacetyl)imino)thiomorpholin-4-carboxamide 1-oxide]
> 10000 | 151 | N=S1(=O)CCN(C(=O)N(Cc2ccc(-c3nnc(C(F)F)o3)cn2)c2ccccc2)CC1 [Compound 3, N-((5-(5-(difluoromethyl)-1,3,4-oxadiazol-2-yl)pyridin-2-yl)methyl)-1-imino-N-phenylthiomorpholin-4-carboxamide 1-oxide]
> 10000 | 390 | O=C(N=S1(=O)CCN(C(=O)N(Cc2ccc(-c3nnc(C(F)F)o3)cc2F)c2ccccc2)CC1)OCc1ccccc1 [Compound 4, Benzyl (4-((4-(5-(difluoromethyl)-1,3,4-oxadiazol-2-yl)-2-fluorobenzyl)(phenyl)carbamoyl)-1-oxidothiomorpholin-1-ylidene)carbamate]
> 10000 | 91.4 | O=C(N=S1(=O)CCN(C(=O)N(Cc2ccc(-c3nnc(C(F)F)o3)cn2)c2ccccc2)CC1)OCc1ccccc1 [Compound 5, Benzyl (4-(((5-(5-(difluoromethyl)-1,3,4-oxadiazol-2-yl)pyridin-2-yl)methyl)(phenyl)carbamoyl)-1-oxidothiomorpholin-1-ylidene)carbamate]
> 10000 | 50 | N=S1(=O)CCN(C(=O)N(Cc2ccc(-c3nnc(C(F)F)o3)cc2F)c2ccc(F)c(F)c2)CC1 [Compound 6, N-(4-(5-(difluoromethyl)-1,3,4-oxadiazol-2-yl)-2-fluorobenzyl)-N-(3,4-difluorophenyl)-1-iminothiomorpholin-4-carboxamide 1-oxide]
> 10000 | 40.9 | N=S1(=O)CCN(C(=O)N(Cc2ccc(-c3nnc(C(F)F)o3)cn2)c2ccc(F)c(F)c2)CC1 [Compound 7, N-((5-(5-(difluoromethyl)-1,3,4-oxadiazol-2-yl)pyridin-2-yl)methyl)-N-(3,4-difluorophenyl)-1-iminothiomorpholin-4-carboxamide 1-oxide]
> 10000 | 194 | N=S1(=O)CCC(C(=O)N(Cc2ccc(-c3nnc(C(F)F)o3)cc2F)c2ccccc2)CC1 (stereo not drawn) [Compound 8, N-(4-(5-(difluoromethyl)-1,3,4-oxadiazol-2-yl)-2-fluorobenzyl)-1-imino-N-phenyltetrahydro-2H-thiopyran-4-carboxamide 1-oxide]
> 10000 | 280 | N=S1(=O)CCN(C(=O)N(Cc2ccc(-c3nnc(C(F)(F)F)o3)cn2)c2ccccc2)CC1 [Compound 9, 1-imino-N-phenyl-N-((5-(5-(trifluoromethyl)-1,3,4-oxadiazol-2-yl)pyridin-2-yl)methyl)thiomorpholine-4-carboxamide 1-oxide]
